The text below walks through data of patent US20250019357A1, “[…] MORPHIC FORMS AND MIXTURES FOR THE TREATMENT OF MENTAL DISORDERS OR MENTAL ENHANCEMENT” (TACTOGEN INC, priority 2021, published 2025).

Series [1] is described as follows: Scale-up and solid-state stability study. The class given is physicochemical. As to conditions: ~10 mg staged at 40° C./75% RH for 1 day, analyzed by PXRD. How it is done: Scale up study of selected S-5-MAPB salts (Patterns 1A, 2A, and 10A) to −70 mg was completed. […] All three samples were then tested for their solid-state stability as shown below in Table 17. (API=5-MAPB HCl)
Scale up study of selected salts (S-5-MAPB Patterns 1A, 4A, and 8A) to −250 mg completed. Patterns 1A, 4A, and 8A were all scaled up successfully. All three samples were then tested for their solid-state stability as shown below in Table 19. (API=S-5-MAPB Pure Enantiomer)

Series [2] has as its target T1, SERT (Rattus norvegicus (Rat), UniProt P31652). In words: In vitro rat synaptosome serotonin release (efflux) assay (Examples 9, 58). It is filed as biochemical. The settings on record: rat synaptosomes. An excerpt: FIG. 7B is a graph showing results from an in vitro rat synaptosome serotonin release assay. […] Details and procedural information for this assay are described in Example 9. The x-axis is the log [dose] concentration measured in molar and the y-axis is the [^3H]-labeled 5-HT release measured in percent.
FIG. 177 is a graph showing results from an in vitro rat synaptosome serotonin release assay. […] Details and procedural information for this assay are described in Example 58. The x-axis the log [dose] concentration measured in molar and the y-axis is the [^3H]-labeled 5-HT release measured in percent.

Series [3] deals with serotonin (5-HT) transporter (SERT) (Rattus norvegicus (Rat), UniProt P31652). In words: Rat synaptosome SERT uptake inhibition assay ([3H]5-HT).
The target of series [4] is T1, SERT. In words: In vitro rat synaptosome serotonin uptake inhibition assay (Examples 9, 58). It is filed as biochemical. The settings on record: rat synaptosomes. An excerpt:
FIG. 7A is a graph showing results from an in vitro rat synaptosome serotonin uptake inhibition assay. […] Details and procedural information for this assay are described in Example 9. The x-axis is the log [dose] concentration measured in molar and the y-axis is the [^3H]-labeled 5-HT reuptake measured in percent.
FIG. 176 is a graph showing results from an in vitro rat synaptosome serotonin uptake inhibition assay. […] Details and procedural information for this assay are described in Example 58. The x-axis the log [dose] concentration is measured in Molar units and the y-axis is the [^3H]-labeled 5-HT reuptake measured in percent of maximum produced by the comparison releaser.

Series [5] has as its target 5-HT1BR (Homo sapiens (Human), UniProt P28222). It is filed as cell-based. As to conditions: for Hill Coef.: 5-HT1BR agonist curve; for EC50: Table 3.
The target in series [6] is human 5-HT transporter (hSERT) (Homo sapiens (Human), UniProt P31645). In words: Human serotonin transporter  assay ([3H]imipramine radioligand, CHO cells). As to conditions: for Ki: Cheng Prusoff equation, read-out: SERT Ki; for IC50: 2 nM [3H]imipramine, CHO cells, read-out: SERT IC50. The class given is binding. How it is done:
EXAMPLE 8: Human Serotonin Transporter (SERT, SLC6A4) Functional Antagonist Uptake Assay
Benzofuran derivatives were evaluated for inhibiting the human 5-HT transporter (hSERT) as expressed in CHO cells using an antagonist radioligand assay (Tatsumi, M. et al. (1999), Eur. J. Pharmacol., 368: 277-283). […] Test compounds were assayed in three trials at […], and 0.94868 μM.
EXAMPLE 57: Human Serotonin Transporter (SERT, SLC6A4) Functional Antagonist Uptake Assay

Series [7] in a line: Human self-reported effects of non-racemic 5-MAPB (Good, Bad, Open ratings). The class given is in vivo. How it is done:
The effects of non-racemic 5-MAPB HCl were tested by a healthy human individual at four different ratios of enantiomers plus the racemate as a control: • 54 mg S and 0 mg R (100% S) • 47 mg S and 7 mg R (about 87% S) • 36 mg S and 18 mg R (about 67% S) • 27 mg S and 27 mg R (about 50% S) • 7 mg S and 47 mg R (about 13% S)
Two trials were carried out at each ratio, except for 13% S where only one was conducted. Trials were at least 72 h apart.
5-MAPB HCl was dissolved in 1.5 ml distilled water and consumed in two halves, separated by 1 hour. Starting at 3 hours after administration, tablets of 250 mg ascorbic acid and capsules of 300 mg alpha lipoic acid were taken ad libitum (approximately every hour for a total of 4 administrations).
Measurements were made approximately every 2 hours until post 6 hours and the maximum ratings per session were analyzed. Additionally, an index of good drug effects versus emotional openness, calculated as (Open−Good)/(200, the theoretical maximum of Open+ Good), was constructed at each time point and the maximum analyzed. In healthy volunteers, Good Ratings can be considered a predictor of abuse liability. Accordingly, this index can be used as an indicator of the balance of a therapeutic effect (emotional openness) vs abuse liability.
Historic data of two trials 50 mg RS-5-MAPB Cl from the same individual were also included in the analysis for comparison.
Table 24 below indicates maximums for individual measures and for the open vs good index, averaged from all sessions (N=2, except for 13% S-5-MAPB where N=1). Qualitatively, all conditions produced subtle emotional effects, including decreases in negative affect and increases in stability of mood, without sensory distortion.

The test system of series [8] is norepinephrine transporter (NET). In words: Rat synaptosome NET release assay ([3H]MPP+). The settings on record: rat synaptosomes.
In series [9] the target is DAT (Rattus norvegicus (Rat), UniProt P23977). In words: In vitro rat synaptosome dopamine release assay (Examples 9, 58). The class given is biochemical. The settings on record: rat synaptosomes. An excerpt:
(§1) FIG. 8C is a graph showing results from in vitro rat synaptosome dopamine and norepinephrine release assays. […] Previously presented serotonin results are included for comparison. […] Details and procedural information for this assay are described in Example 9. The x-axis is the log [dose] concentration measured in molar and the y-axis is the [^3H]-labeled 5-HT release measured in percent.
(§2) FIG. 178 is a graph showing results from in vitro rat synaptosome dopamine and norepinephrine release assays. […] Previously presented serotonin results are included for comparison. […] Details and procedural information for this assay are described in Example 58. The x-axis the log [dose] concentration measured in Molar units and the y-axis is the [^3H]-labeled 5-HT release measured in percent of maximum produced by the comparison releaser.

The target in series [10] is dopamine transporter (DAT) (Rattus norvegicus (Rat), UniProt P23977). In words: Rat synaptosome DAT release assay ([3H]MPP+). As to conditions: read-out: dopamine Emax (maximum dopamine increase relative to reference drug).
Series [11] relates to NET. In words: In vitro rat synaptosome norepinephrine release assay (Examples 9, 58). The class given is biochemical. The settings on record: rat synaptosomes.
Description: as §1, §2

For series [12], the target named is Human Trace Amine Associated Receptor (hTAAR1) (Homo sapiens (Human), UniProt Q96RJ0). In words: hTAAR1 agonist assay (DiscoverX cAMP Hunter). As to conditions: for hTAAR1 maximum detected effects: seven concentrations between 0.05692 and 60 μM. The class given is cell-based.
Where [13] appears, read: S-5-MAPB salt scale-up (~250 mg, API=S-5-MAPB Pure Enantiomer).
[14] abbreviates: read-out: Inhibition of [3H]5-HT Uptake at SERT IC50, rat brain synaptosomes, 5 nM [3H]5-HT.
[15] abbreviates: one healthy human, 54 mg total 5-MAPB HCl oral in two halves 1 hour apart, session maximum averaged (N=2, 13% S N=1).
[16] abbreviates: S-5-MAPB salt scale-up (~70 mg, API=5-MAPB HCl).

SMILES strings stand for the structures. “Also recorded” adds a separate entry of the source. Like-named read-outs stand apart in the source and are kept apart here.

For `CN[C@@H](C)Cc1ccc2occc2c1.O=P(O)(O)O` (single isomer, unassigned) [H3PO4 (Pattern 4A), 5-MAPB Enantiomer H3PO4], the “PXRD Pattern (40° C./75% RH sample)” value in series [1] (setting [13]) is 4A.
On the same count and under the same terms, to `CN[C@@H](C)Cc1ccc2occc2c1.O=C(O)C(=O)O` (single isomer, unassigned) [Oxalic (Pattern 8A), 5-MAPB Enantiomer oxalic acid] belongs 8A.
Turning to `CN[C@H](C)Cc1ccc2ccoc2c1` (stereo in doubt) [Pattern R-6-MAPB, 1-(benzofuran-6-yl)-N-methylpropan-2-amine], in series [2], the “[3H]-labeled 5-HT release” value is recorded as “rapidly increases extracellular serotonin by stimulating release”. Further, the IC50 in series [3] (setting [14]) was determined as 0.623 ± 0.0312 µM. For the same compound, in [4], the “[3H]-labeled 5-HT reuptake (serotonin uptake inhibition)” value is “rapidly increases extracellular serotonin by inhibiting reuptake”. In series [5], the “Hill Coef.” value was found to be 1.14 and it took 1.48 µM to reach a half-maximal effect (EC50). For the same compound, the Ki in series [6] was 11 µM.
For `CN[C@@H](C)Cc1ccc2occc2c1` [100% S-5-MAPB], the duration of effects entry in series [7] (healthy human individual, 54 mg S and 0 mg R) is listed as “effects of less duration than conditions that included the R-enantiomer”. For the same compound, in series [7] (setting [15]), the “Bad (bad drug effects), maximum 0-100 rating” value came out at 1%; the “Good (good drug effects), maximum 0-100 rating” value amounted to 55%; the “Open (emotional openness), maximum 0-100 rating” value is 65%.
With `Br.CNC(C)Cc1ccc2occc2c1` (centres unmarked) [HBr (Pattern 2A), 5-MAPB HBr], the “PXRD Pattern (40° C./75% RH sample)” value in [1] (setting [16]) is reported as “Pattern 2B”.
Consider `CNC(C)Cc1ccc2occc2c1.Cl` (centres unmarked) [HCl (Pattern 1A), 5-MAPB HCl], for which the entries for the “PXRD Pattern (40° C./75% RH sample)” value in series [1] (setting [16]) and in series [1] (setting [13]) were “Pattern 1A” and 1A, respectively.
With `CNC(C)Cc1ccc2occc2c1.O=C(O)/C=C\C(=O)O` (centres unmarked) [Maleic (Pattern 10A), 5-MAPB maleic acid], the “PXRD Pattern (40° C./75% RH sample)” value in [1] (setting [16]) is 10A.
In the case of `CN[C@H](C)Cc1ccc2occc2c1` [Pattern R-5-MAPB, R-5-MAPB], in series [2], the “[3H]-labeled 5-HT release” value is “rapidly increases extracellular serotonin by stimulating release”. Further, in series [3] (setting [14]), the IC50 was 0.15 ± 0.0086 µM. Besides, the “[3H]-labeled 5-HT reuptake (serotonin uptake inhibition)” value in series [4] is on record as “rapidly increases extracellular serotonin by inhibiting reuptake”. For the same compound, in [5], the “Hill Coef.” value is 1.13 and the EC50 stood at 0.981 µM. In addition, the Ki in series [6] worked out at 1.2 µM.
Turning to `CC[C@H](Cc1ccc2occc2c1)NC` [Pattern R-5-MBPB, R-5-MBPB], the “[3H]-labeled 5-HT release” value in [2] is on record as “rapidly increases extracellular serotonin by stimulating release”. In addition, in [4], the “[3H]-labeled 5-HT reuptake (serotonin uptake inhibition)” value was “rapidly increases extracellular serotonin by inhibiting reuptake”. In [8], the “norepinephrine Emax” value is 58%. The “dopamine release / dopamine uptake” value in series [9] is listed as “reuptake inhibitors of dopamine; also recorded: dopamine uptake inhibitors”. Also, the Emax in series [10] is roughly 25%. Moreover, the IC50 in series [6] is less than 0.95 µM. Besides, the norepinephrine release entry in [11] is reported as “partial releasers of norepinephrine; also recorded: rapidly increases extracellular norepinephrine by stimulating release”.
In turn, `CC[C@H](Cc1ccc2ccoc2c1)NC` [Pattern R-6-MBPB, R-6-MBPB] showed an IC50 in series [3] of 0.702 ± 0.262 µM. In addition, the “hTAAR1 maximum detected effects” value in series [12] is on record as 0.9%. Besides, the Emax in series [10] is roughly 25%.
In the case of `CN[C@@H](C)Cc1ccc2occc2c1` [Pattern S-5-MAPB, S-5-MAPB], the “[3H]-labeled 5-HT release” value in series [2] is recorded as “rapidly increases extracellular serotonin by stimulating release”. Besides, the IC50 in series [3] (setting [14]) was determined as 0.0604 ± 0.0028 µM. Besides, the “[3H]-labeled 5-HT reuptake (serotonin uptake inhibition)” value in [4] is “rapidly increases extracellular serotonin by inhibiting reuptake”. In [5], the “Hill Coef.” value is 1.08 and the EC50 was 0.161 µM. In addition, the Ki in [6] was found to be 1.5 µM.
Turning to `CC[C@@H](Cc1ccc2occc2c1)NC` [Pattern S-5-MBPB, S-5-MBPB], in series [2], the “[3H]-labeled 5-HT release” value is listed as “rapidly increases extracellular serotonin by stimulating release”. Further, the “[3H]-labeled 5-HT reuptake (serotonin uptake inhibition)” value in series [4] was “rapidly increases extracellular serotonin by inhibiting reuptake”. Also, in [6], the IC50 is less than 0.95 µM. Besides, in series [11], the norepinephrine release result is “rapidly increases extracellular norepinephrine by stimulating release”.
With `CN[C@@H](C)Cc1ccc2ccoc2c1` [Pattern S-6-MAPB, S-6-MAPB], the “[3H]-labeled 5-HT release” value in series [2] is listed as “rapidly increases extracellular serotonin by stimulating release”. The IC50 in series [3] (setting [14]) was 0.0909 ± 0.0059 µM. The “[3H]-labeled 5-HT reuptake (serotonin uptake inhibition)” value in series [4] is listed as “rapidly increases extracellular serotonin by inhibiting reuptake”. Besides, in series [5], the “Hill Coef.” value was 1.21 and the EC50 amounted to 0.102 µM. The Ki in series [6] worked out at 3.1 µM.
`CC[C@@H](Cc1ccc2ccoc2c1)NC` [Pattern S-6-MBPB, S-6-MBPB] gave an IC50 in [3] of 0.217 ± 0.0458 µM. The “hTAAR1 maximum detected effects” value in [12] came to 0.6%. In addition, the Emax in series [10] came to 72%.
On to `NCCc1ccc(O)cc1` [p-Tyramine, reference compound], for which, in series [12] (positive control), a half-maximal response (EC50) required 1.14 µM and the “hTAAR1 Hill constant” value came out at 0.7453.
